Read-outs that look alike come from different tables or passages of the source. Where a SMILES comes first, the peptide text is derived from it. Where no end group is shown, it is not given here. [ ]: non-standard residue; d: D form. d1Nal = N[C@H](Cc1cccc2ccccc12)C(=O)O; Cha = N[C@@H](CC1CCCCC1)C(=O)O; Phg = N[C@H](C(=O)O)c1ccccc1; Nva = CCC[C@H](N)C(=O)O
How the values were obtained:
ghrelin receptor [1] = target: T1, ghrelin receptor (Homo sapiens, UniProt Q92847); experiment: Inositol trisphosphate turnover assay in COS-7 cells transfected with the ghrelin receptor; assay type: cell-based; set-up: expressed in transfected cells; conditions: for Emax: COS-7; for Emax ± SEM: efficacy; for EC50: mean ± SEM of n experiments
Target sequence in this assay (Q92847 whole entry): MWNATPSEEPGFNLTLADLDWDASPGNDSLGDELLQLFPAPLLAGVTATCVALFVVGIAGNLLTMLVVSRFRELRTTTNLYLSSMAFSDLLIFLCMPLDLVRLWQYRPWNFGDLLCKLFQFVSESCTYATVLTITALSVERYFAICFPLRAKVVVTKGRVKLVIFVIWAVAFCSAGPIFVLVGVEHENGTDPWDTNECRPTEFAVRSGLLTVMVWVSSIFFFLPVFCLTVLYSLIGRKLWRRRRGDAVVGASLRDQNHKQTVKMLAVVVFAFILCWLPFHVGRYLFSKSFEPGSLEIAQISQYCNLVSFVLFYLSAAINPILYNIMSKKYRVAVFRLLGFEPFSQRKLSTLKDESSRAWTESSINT
Protocol: COS-7 cells were grown in a humidified atmosphere at 37° C. and 5% CO2 in Dulbecco's modified Eagle's medium with higher glucose supplemented with 10% (v/v) FCS and 1% (v/v) penicillin/streptomycin. COS-7 cells were seeded out in 24-well plates (80.000-100.000 cells/well) in DMEM with 10% FCS. […] Each well was treated with 0.3 μg DNA and 0.9 μl metafectene.
The day after transfection, or the day after seeding for stable cells, cells were incubated with myo-[2-^3H]-inositol (2 μCi/ml) for 18 h and washed with DMEM/LiCl. Stimulation was then carried out with seven to nine different peptide concentrations in DMEM containing 10 mM LiCl, for 2 h, in duplicates. Stimulation was stopped by aspirating the medium and subsequently, cells were lysed with 150 μl of 0.1M NaOH for 5 min at RT. 50 μl of 0.2M HCOOH were added and the solution was diluted using 1 ml dilution buffer. […] Obtained data was analyzed with GraphPad Prism 3.0 (GraphPad Software). Therefore, dpm values are assigned to the corresponding peptide concentrations. Non-linear regression was used to obtain sigmoidal curves. For better comparability, dpm values were normalized to the constitutive activity. Constitutive activity of 100% represents the basal activity, the activity of the receptor without the influence of peptides. Emax is the efficacy of the peptide and represents the difference between constitutive activity and activity at maximal effect of the peptide. EC50 is the peptide concentration at half-maximal effect.

rats = experiment: ICV administration to rats, food intake; assay type: in vivo; conditions: 1 nmol/rat, n=6, vs vehicle 0.9% saline with DMSO
Source text: For in vivo studies, peptide 3 was delivered intracerebroventricularly. The rats were stereotaxically implanted with a stainless steel cannula (Holm Finmekanik AS, Copenhagen, Denmark) aimed at the right lateral ventricle 1 mm caudal and 1.5 mm lateral to bregma and 4 mm ventral to cranium externa. Rats were left to recover in the metabolic cages (MANI Feed Win, Ellegaard Systems) for adaptation for at least 5 days, only interrupted by daily handling and body weight measurements. With these cages we could accurately measure the food and water intake of rats for up to 48 hours. The powdered diet used eliminated food hoarding and spill. Cannula placement was confirmed by measuring the drinking response to angiotensin injection (100 nmol/rat). Administration of peptide was done with 1 nmol/rat (n=6). As a negative control, a vehicle solution of 0.9% saline with DMSO (n=7) was used.

ghrelin receptor [2] = target: T1, ghrelin receptor; conditions: background, cited from earlier work
Target sequence in this assay (Q92847 whole entry, species assumed): as the sequence (Q92847 whole entry) above

ghrelin receptor [3] = target: T1, ghrelin receptor; conditions: background; cited from earlier work
Target sequence in this assay (Q92847 whole entry, species assumed): as the sequence (Q92847 whole entry) above

[4] = inverse agonistic activity, read-out: efficacy (Emax)
[5] = inverse agonistic activity, difference to constitutive activity (Table 2)
[6] = inverse agonistic activity, analogs KxFwLL-NH2 (Table 2)
[7] = shift in efficacy compared to KwFwLL-NH2, inverse agonistic activity
[8] = shift in potency compared to KwFwLL-NH2, inverse agonistic activity
[9] = agonistic activity, read-out: Emax
[10] = agonistic activity, ghrelin and analogs KwFxLL-NH2 (Table 3)
[11] = agonistic activity, difference to constitutive activity (Table 3)
[12] = shift in efficacy compared to ghrelin, agonistic activity
[13] = shift in potency compared to ghrelin, agonistic activity
[14] = inverse agonistic activity, analogs K-(D-1-Nal)-xwLL-NH2 (Table 5)
[15] = shift of efficacy compared to K-(D-1-Nal)-FwLL-NH2, inverse agonistic activity
[16] = shift of potency compared to K-(D-1-Nal)-FwLL-NH2, inverse agonistic activity

## CC(C)C[C@H](NC(=O)[C@H](CC(C)C)NC(=O)[C@@H](Cc1c[nH]c2ccccc12)NC(=O)[C@H](Cc1ccccc1)NC(=O)[C@@H](Cc1c[nH]c2ccccc12)NC(=O)[C@@H](N)CCCCN)C(N)=O [Peptide 2, KwFwLL-NH2, reference compound]
Ghrelin receptor [1]; [4]
  Emax: 37%
Ghrelin receptor [1]; [5]
  Emax ± SEM: 37 ± 5 Δ %
Ghrelin receptor [1]; [6]
  EC50: 0.0456 µM
Ghrelin receptor [1]; [7]
  x-fold (Emax): 1 x-fold
Ghrelin receptor [1]; [8]
  x-fold (EC50): 1 x-fold

## CC(C)C[C@H](NC(=O)[C@H](CC(C)C)NC(=O)[C@@H](Cc1c[nH]c2ccccc12)NC(=O)[C@H](Cc1ccccc1)NC(=O)[C@@H](Cc1cccc2ccccc12)NC(=O)[C@@H](N)CCCCN)C(N)=O [Peptide 3, K-(D-1-Nal)-FwLL-NH2]
rats
  decrease of food intake compared to vehicle: ~5 fold

## CC(C)C[C@H](NC(=O)[C@H](CC(C)C)NC(=O)[C@@H](Cc1c[nH]c2ccccc12)NC(=O)[C@H](Cc1ccccc1)NC(=O)[C@H](NC(=O)[C@@H](N)CCCCN)C(c1ccccc1)c1ccccc1)C(N)=O [Peptide 5, K-(D-Dip)-FwLL-NH2]
Ghrelin receptor [1]; [4]
  Emax: > 80%
Ghrelin receptor [1]; [5]
  Emax ± SEM: 87 ± 2 Δ %
Ghrelin receptor [1]; inverse agonistic activity
  increase in activity compared with peptide 2 (KwFwLL-NH2): 3.5 fold
Ghrelin receptor [1]; [7]
  x-fold (Emax): 2.4 x-fold
Ghrelin receptor [1]; [8]
  x-fold (EC50): 0.29 x-fold

## CC(C)C[C@H](NC(=O)[C@H](CC(C)C)NC(=O)[C@@H](Cc1c[nH]c2ccccc12)NC(=O)[C@H](Cc1ccccc1)NC(=O)[C@@H](Cc1ccc2ccccc2c1)NC(=O)[C@@H](N)CCCCN)C(N)=O [Peptide 6, K-(D-2-Nal)-FwLL-NH2]
Ghrelin receptor [1]
  activity at the ghrelin receptor (in words): moderate activity
Ghrelin receptor [1]; [5]
  Emax ± SEM: 66 ± 4 Δ %
Ghrelin receptor [1]; [6]
  EC50: 0.161 µM
Ghrelin receptor [1]; [7]
  x-fold (Emax): 1.8 x-fold
Ghrelin receptor [1]; [8]
  x-fold (EC50): 3.54 x-fold

## CC(C)C[C@H](NC(=O)[C@H](CC(C)C)NC(=O)[C@@H](Cc1c[nH]c2ccccc12)NC(=O)[C@H](Cc1ccccc1)NC(=O)[C@@H](Cc1ccc(C(=O)c2ccccc2)cc1)NC(=O)[C@@H](N)CCCCN)C(N)=O [Peptide 7, K-(D-Bpa)-FwLL-NH2]
Ghrelin receptor [1]
  activity at the ghrelin receptor (in words): moderate activity
Ghrelin receptor [1]; [5]
  Emax ± SEM: 67 ± 7 Δ %
Ghrelin receptor [1]; [7]
  x-fold (Emax): 1.8 x-fold
Ghrelin receptor [1]; [8]
  x-fold (EC50): 3.70 x-fold

## CC(C)C[C@H](NC(=O)[C@H](CC(C)C)NC(=O)[C@@H](Cc1c[nH]c2ccccc12)NC(=O)[C@H](Cc1ccccc1)NC(=O)[C@@H](Cc1ccc(-c2ccccc2)cc1)NC(=O)[C@@H](N)CCCCN)C(N)=O [Peptide 8, K-(D-Bip)-FwLL-NH2]
Ghrelin receptor [1]
  activity at the ghrelin receptor (in words): moderate activity
Ghrelin receptor [1]; [4]
  Emax: > 80%
Ghrelin receptor [1]; [5]
  Emax ± SEM: 82 ± 0 Δ %
Ghrelin receptor [1]; [7]
  x-fold (Emax): 2.2 x-fold
Ghrelin receptor [1]; [8]
  x-fold (EC50): 4.03 x-fold

## CC(C)C[C@H](NC(=O)[C@H](CC(C)C)NC(=O)[C@@H](Cc1c[nH]c2ccccc12)NC(=O)[C@H](Cc1ccccc1)NC(=O)[C@@H](Cc1ccccc1)NC(=O)[C@@H](N)CCCCN)C(N)=O [Peptide 9, K-(D-Phe)-FwLL-NH2]
Ghrelin receptor [1]
  activity at the ghrelin receptor (in words): moderate activity
Ghrelin receptor [1]; [5]
  Emax ± SEM: 62 ± 4 Δ %
Ghrelin receptor [1]; [6]
  EC50: 0.241 µM
Ghrelin receptor [1]; [7]
  x-fold (Emax): 1.7 x-fold
Ghrelin receptor [1]; [8]
  x-fold (EC50): 5.28 x-fold

## CC(C)C[C@H](NC(=O)[C@H](CC(C)C)NC(=O)[C@@H](Cc1cccc2ccccc12)NC(=O)[C@H](Cc1ccccc1)NC(=O)[C@@H](Cc1c[nH]c2ccccc12)NC(=O)[C@@H](N)CCCCN)C(N)=O [Peptide 12, KwF-(D-1-Nal)-LL-NH2]
Ghrelin receptor [1]; [9]
  Emax: 54%
Ghrelin receptor [1]; [10]
  EC50: 0.0179 µM
Ghrelin receptor [1]; [11]
  Emax ± SEM: 54 ± 10 Δ %
Ghrelin receptor [1]; [12]
  x-fold (Emax): 0.3 x-fold
Ghrelin receptor [1]; [13]
  x-fold (EC50): 12.8 x-fold

## CC(C)C[C@H](NC(=O)[C@H](CC(C)C)NC(=O)[C@@H](Cc1ccc2ccccc2c1)NC(=O)[C@H](Cc1ccccc1)NC(=O)[C@@H](Cc1c[nH]c2ccccc12)NC(=O)[C@@H](N)CCCCN)C(N)=O [Peptide 13, KwF-(D-2-Nal)-LL-NH2]
Ghrelin receptor [1]; [9]
  Emax: 156%
Ghrelin receptor [1]; [10]
  EC50: 0.0126 µM
Ghrelin receptor [1]; agonistic activity, relative to ghrelin
  percent of ghrelin efficacy: 96%
Ghrelin receptor [1]; [11]
  Emax ± SEM: 156 ± 22 Δ %
Ghrelin receptor [1]; [12]
  x-fold (Emax): 1 x-fold
Ghrelin receptor [1]; [13]
  x-fold (EC50): 9.00 x-fold

## CC(C)C[C@H](NC(=O)[C@H](CC(C)C)NC(=O)[C@@H](Cc1ccc(-c2ccccc2)cc1)NC(=O)[C@H](Cc1ccccc1)NC(=O)[C@@H](Cc1c[nH]c2ccccc12)NC(=O)[C@@H](N)CCCCN)C(N)=O [Peptide 14, KwF-(D-Bip)-LL-NH2]
Ghrelin receptor [1]
  activity at the ghrelin receptor (in words): no activity

## CC(C)C[C@H](NC(=O)[C@H](CC(C)C)NC(=O)[C@@H](Cc1ccc(C(=O)c2ccccc2)cc1)NC(=O)[C@H](Cc1ccccc1)NC(=O)[C@@H](Cc1c[nH]c2ccccc12)NC(=O)[C@@H](N)CCCCN)C(N)=O [Peptide 15, KwF-(D-Bpa)-LL-NH2]
Ghrelin receptor [1]
  activity at the ghrelin receptor (in words): no activity

## CC(C)C[C@H](NC(=O)[C@H](CC(C)C)NC(=O)[C@H](NC(=O)[C@H](Cc1ccccc1)NC(=O)[C@@H](Cc1c[nH]c2ccccc12)NC(=O)[C@@H](N)CCCCN)C(c1ccccc1)c1ccccc1)C(N)=O [Peptide 16, KwF-(D-Dip)-LL-NH2]
Ghrelin receptor [1]
  activity at the ghrelin receptor (in words): no activity

## CC(C)C[C@H](NC(=O)[C@H](CC(C)C)NC(=O)[C@@H](Cc1cccc2ccccc12)NC(=O)[C@H](Cc1ccccc1)NC(=O)[C@@H](Cc1cccc2ccccc12)NC(=O)[C@@H](N)CCCCN)C(N)=O [Peptide 18, K-(D-1-Nal)-F-(D-1-Nal)-LL-NH2]
Ghrelin receptor [1]
  activity at the ghrelin receptor (in words): totally suppressed activity

## CC(C)C[C@H](NC(=O)[C@H](CC(C)C)NC(=O)[C@@H](Cc1csc2ccccc12)NC(=O)[C@H](Cc1ccccc1)NC(=O)[C@@H](Cc1cccc2ccccc12)NC(=O)[C@@H](N)CCCCN)C(N)=O [Peptide 19, K-(D-1-Nal)-F-(D-Bth)-LL-NH2]
Ghrelin receptor [1]; [4]
  Emax: 40%
Ghrelin receptor [1]; inverse agonistic activity, analogs KxFxLL-NH2 (Table 4)
  Emax ± SEM: 40 ± 2 Δ %

## CC(C)C[C@H](NC(=O)[C@H](CC(C)C)NC(=O)[C@@H](Cc1c[nH]c2ccccc12)NC(=O)[C@H](CC1CCCCC1)NC(=O)[C@@H](Cc1cccc2ccccc12)NC(=O)[C@@H](N)CCCCN)C(N)=O [Peptide 21, K-(D-1-Nal)-(Cha)-wLL-NH2] (H-K[d1Nal][Cha][dW]LL-NH2)
Ghrelin receptor [1]; [14]
  Emax ± SEM: 85 ± 3 Δ %
Ghrelin receptor [1]; [15]
  x-fold (Emax): 1.3 x-fold
Ghrelin receptor [1]; [16]
  x-fold (EC50): 28.5 x-fold

## CC(C)C[C@H](NC(=O)[C@H](CC(C)C)NC(=O)[C@@H](Cc1c[nH]c2ccccc12)NC(=O)[C@H](Cc1ccc(C(C)(C)C)cc1)NC(=O)[C@@H](Cc1cccc2ccccc12)NC(=O)[C@@H](N)CCCCN)C(N)=O [Peptide 22, K-(D-1-Nal)-(L-tBf)-wLL-NH2]
Ghrelin receptor [1]; [4]
  Emax: 84%
Ghrelin receptor [1]; [14]
  Emax ± SEM: 84 ± 3 Δ %
Ghrelin receptor [1]; [15]
  x-fold (Emax): 1.3 x-fold
Ghrelin receptor [1]; [16]
  x-fold (EC50): 36.5 x-fold

## CCC[C@H](NC(=O)[C@@H](Cc1cccc2ccccc12)NC(=O)[C@@H](N)CCCCN)C(=O)N[C@H](Cc1c[nH]c2ccccc12)C(=O)N[C@@H](CC(C)C)C(=O)N[C@@H](CC(C)C)C(N)=O [Peptide 24, K-(D-1-Nal)-(L-Nva)-wLL-NH2] (H-K[d1Nal][Nva][dW]LL-NH2)
Ghrelin receptor [1]; [14]
  Emax ± SEM: 71 ± 4 Δ %
Ghrelin receptor [1]; [15]
  x-fold (Emax): 1.1 x-fold
Ghrelin receptor [1]; [16]
  x-fold (EC50): 146.5 x-fold

## CC(C)C[C@H](NC(=O)[C@H](CC(C)C)NC(=O)[C@@H](Cc1c[nH]c2ccccc12)NC(=O)[C@@H](NC(=O)[C@@H](Cc1cccc2ccccc12)NC(=O)[C@@H](N)CCCCN)c1ccccc1)C(N)=O [Peptide 25, K-(D-1-Nal)-(L-Phg)-wLL-NH2] (H-K[d1Nal][Phg][dW]LL-NH2; N-terminus assumed)
Ghrelin receptor [1]; [16]
  x-fold (EC50): >290 x-fold

## fQwFwLL-NH2
Ghrelin receptor [2]
  decrease of affinity in comparison to full-length modified substance P: 5.3 fold
Ghrelin receptor [3]
  decrease of activity in comparison to full-length modified substance P: 1.6 fold

## wFwLL-NH2 ([dW]F[dW]LL-NH2; N-terminus assumed; SMILES CC(C)C[C@H](NC(=O)[C@H](CC(C)C)NC(=O)[C@@H](Cc1c[nH]c2ccccc12)NC(=O)[C@H](Cc1ccccc1)NC(=O)[C@H](N)Cc1c[nH]c2ccccc12)C(N)=O)
Ghrelin receptor [2]; reference 17, read-out: IC50 (receptor binding)
  IC50: 0.53 ± 0.23 µM

From US9718861B2 (Universitaet Leipzig, priority 2011, dated 2017)
